US20240009180A1, “MEDICINE FOR ALLEVIATING NEUROPATHIC PAIN” (Asahi Kasei Pharma Corporation, priority 2020, published 2024)
Structures can show the parent of a compound that is named as a salt.

Columns and labels:
[1] = tested on: hypersensitivity to mechanical stimulation; conditions: in vivo; cited from earlier work
[2] = Study for pharmacokinetics in blood after oral administration to rats; type: in vivo; conditions: male, Crl: CD (SD), rat, 30 mg/kg, oral 30 mg/kg once daily
Protocol: Rats (strain: Crl: CD (SD), male, 7 weeks old, with diet) were orally administered a methylcellulose suspension containing a P2X7 receptor antagonist compound (Compound 7 or Compound 10). Then blood was collected from rats 15 and 30 minutes, 1, 2, 4, 8 and 24 hours after the administration, and the concentration of the compound contained in the collected blood was measured. The dose of the compound per dose was 30 mg/kg, and the concentration of the compound in the suspension was 3 mg/mL. Administration was carried out once daily for 4 consecutive days.
The variations of a blood level of the compound with the passage of time were analyzed by a conventional method, and the pharmacokinetic parameters were estimated.

[3] = Study for assessing the central tissue distribution after oral administration to rats; type: in vivo, rat; conditions: for concentration at 1 h: male, Crl: CD (SD), plasma; for concentration at 1 h / Brain concentration / Spinal cord concentration: rat, oral 30 mg/kg, 1 hour after administration, mean value; for Distribution to blood and central tissue (in words): oral administration
Protocol: Rats (strain: Crl: CD (SD), male, 7 weeks old, with diet) were orally administered a methylcellulose suspension containing a P2X7 receptor antagonist compound (Compound 7 or Compound 10). Then central tissue was collected from rats 1 hour after its administration, and the compound distribution to the collected central tissue was assessed. The dose of the compound per dose was 30 mg/kg, and the concentration of the compound in the suspension was 3 mg/mL.
The study was carried out with n=2 or n=3.

CCI model rats = assay: Rat chronic stenosis injury model (CCI or Bennett model), Randall-Selitto test; type: in vivo; conditions: 2, 10 or 50 mg/kg single oral dose 3 hours before measurement, 12 days after CCI surgery, vs solvent group
Protocol: In order to confirm the effect of Compound 7 on neuropathic pain, the effect of Compound 7 on hyperalgesia caused by mechanical stimulation occurring in CCI model rats was investigated. Compound 7 was orally administered to rats as an investigational drug, and the following studies were carried out.
As an experimental animal, a 7-week-old Sprague Dawley male rat (220.4 to 328.0 g) was used. The surgery was performed according to the procedure described in Bennett et al., Pain, 1988, 33, 87-107. Under isoflurane anesthesia, the right sciatic nerve was exposed via a blunt incision in the biceps femoris. Proximal to the bifurcation of the sciatic nerve, the nerve was freed of adhering tissue and 4 loose ligatures of 4-0 silk were tied around the nerve. Spacing between ligatures was approximately 1 mm. The muscle was sutured in layers, and the skin closed with silk suture.
The experimental animals were composed of four groups: a solvent administration group and each administration group of either 2, 10 or 50 mg/kg of Compound 7 (Compound 7-administration group). Compound 7 was orally administered to the Compound 7-administration group in a single dose 3 hours before the measurement test performed 12 days after CCI surgery. […]
The baseline threshold value was measured before CCI surgery, and then the pain threshold value was measured 12 days after surgery.

SNL model rats = assay: Rat spinal nerve ligation model (SNL or Chung model), Dynamic Plantar Aesthesiometer test; type: in vivo; conditions: 50 mg/kg oral once a day for 7 days from the 15th day after SNL surgery, vs solvent group
Protocol: In order to confirm the effect of Compound 7 on neuropathic pain, the effect of Compound 7 on allodynia caused by mechanical stimulation occurring in SNL model rats was investigated. Compound 7 was orally administered to rats as a test drug, and the following tests were carried out.
As an experimental animal, a 6-week-old Sprague Dawley male rat (180 to 210 g) was used. The surgery was performed according to the procedure described in Chung et al., Pain, 1992, 50, 355-363. Under isoflurane anesthesia, a longitudinal incision was made in the dorsal skin from the thoracic spine to the sacral spine level. After incision and isolation of the paravertebral muscles, the L5 and L6 transverse processes were removed to expose the L5 and L6 spinal nerves. These nerves were ligated with 5-0 silk suture. Sham operated animals were treated identically with the exception that the nerves were not ligated. The muscle was sutured in layers, and the skin was closed with silk suture.
The experimental animals consisted of 6 groups: a sham operation group, a solvent administration group, and each administration group of either 0.4, 2, 10, or 50 mg/kg of Compound 7 (Compound 7-administration group). […]
The pain threshold for mechanical stimulation in the above rats, was measured using a Dynamic Plantar Aesthesiometer (manufactured by Ugo Basile).

[4] = Central tissue distribution in humans: exposure to the cerebrospinal fluid after repeated oral administration; type: in vivo, human; conditions: healthy subjects
[5] = tested on: animal models of bone cancer; conditions: cited from earlier work
neuropathic pain in rats = conditions: cited from earlier work
[6] = tested on: amphetamine-induced hypersensitivity; conditions: 30 mg/kg; cited from earlier work
neuropathy model rats = conditions: 30 mg/kg; cited from earlier work

For `Clc1cccc(-c2nnnn2Cc2cccnc2)c1Cl` [A438079 hydrochloride], the “Effect on development of hypersensitivity to mechanical stimulation” value [1] is given as “suppressed the development of hypersensitivity to mechanical stimulation”.
Compound `O=C(NCc1ccc(F)cc1Cl)[C@]1(F)CC[C@@](O)(CO)c2ncccc21` [Compound 7, (5S,8S)-N-(2-chloro-4-fluorobenzyl)-5-fluoro-8-hydroxy-8-(hydroxymethyl)-5,6,7,8-tetrahydroquinoline-5-carboxamide] has an AUC(0-t) ([2]; Day 1 of administration) of 80.1 µM·h, a Cmax ([2]; Day 1 of administration) of 18.5 µM and a Tmax ([2]; Day 1 of administration) of 20 min. It also gave an AUC(0-t) ([2]; Day 4 of administration) of 77.4 µM·h, a Cmax ([2]; Day 4 of administration) of 14.7 µM and a Tmax ([2]; Day 4 of administration) of 35 min. For the same compound, the concentration at 1 h [3] was 19.3 µM, the “Distribution to blood and central tissue (in words)” value [3] was “sufficient distribution to blood, brain and spinal cord” and the Brain concentration [3] was 23.6 nmol/g tissue. For the same compound, the Spinal cord concentration [3] was 27.7 nmol/g tissue, the “Pain threshold value (paw pressure) lowered by CCI surgery” value (CCI model rats) was “significantly increased in all the administration groups” and the “Pain threshold value for mechanical stimulation lowered by SNL surgery” value (SNL model rats) was “significantly increased”. For the same compound, the “Exposure to the cerebrospinal fluid” value [4] was “Sufficient Exposure”.
`O=C(NCc1ccc(Cl)cc1Cl)[C@]1(F)CC[C@@](O)(CO)c2ncccc21` [Compound 10, (5S,8S)-N-(2,4-dichlorobenzyl)-5-fluoro-8-hydroxy-8-(hydroxymethyl)-5,6,7,8-tetrahydroquinoline-5-carboxamide] showed an AUC(0-t) ([2]; Day 1 of administration) of 48.8 µM·h, a Cmax ([2]; Day 1 of administration) of 9.54 µM and a Tmax ([2]; Day 1 of administration) of 20 min. The AUC(0-t) ([2]; Day 4 of administration) was 45.6 µM·h, the Cmax ([2]; Day 4 of administration) was 8.27 µM and the Tmax ([2]; Day 4 of administration) was 15 min. The concentration at 1 h [3] was 5.08 µM, the “Distribution to blood and central tissue (in words)” value [3] was “sufficient distribution to blood, brain and spinal cord” and the Brain concentration [3] was 9.22 nmol/g tissue. It also gave a Spinal cord concentration [3] of 11.4 nmol/g tissue.
In the case of `Clc1cccc(-c2nnnn2Cc2cccnc2)c1Cl` [Compound A-438079], the “Effect on bone cancer-related behavior” value [5] is listed as “could not alleviate bone cancer-related behavior”.
For `COc1ccc(CC(=O)NC(NC(=NC#N)Nc2cccc3ncccc23)C(C)(C)C)cc1OC` (stereo not shown) [Compound A-740003, N-(1-{[(cyanoimo) (5-quinolinylamino)methyl]amino}-2,2-dimethylpropyl)-2-(3,4-dimethoxyphenyl)acetamide], the “Effect on neuropathic pain” value (neuropathic pain in rats) is listed as “reduced neuropathic pain in rats in a dose-dependent manner”.
For `O=C(NCC1(N2CCN(c3ccccc3)CC2)CCOCC1)c1cccnc1Sc1ccccc1` [JNJ-47965567], the “Effect on amphetamine-induced hypersensitivity” value [6] is listed as “alleviated the amphetamine-induced hypersensitivity” and the “Efficacy in neuropathy model rats” value (neuropathy model rats) is listed as “not a large but a significant efficacy”.
